Reference: a melting point compilation (Tetko et al.; mined from patent text by program, amines drawn as free bases though some values may be those of a salt)

| melting point [°C] | SMILES |
| --- | --- |
| 83 to 85 | CC1COC(C2CCC(O)C2)N1C(=O)c1ccccc1 (stereo not given) |
| 106 to 107 | CCCCCCOCOc1c(C(C)(C)C)cc(-c2ccc(C#N)c(C#N)c2)cc1C(C)(C)C |
| 215 to 217 | Nc1nc(N)c(-c2cc(Cl)ccc2Cl)c(C(F)(F)F)n1 |
| 117 to 118 | N#CN1c2ccccc2CC(O)c2ccccc21 (stereo not given) |
| 71.9 to 74.2 | CCN(CC)Cc1[nH]c(C)c(-c2ccnc(Nc3ccc(F)cc3)n2)c1C |
| 111 to 113 | CCc1nc2c(cnn2CC)c(NC2CCOCC2)c1CNC(=O)c1cccc(C(=O)NCc2cc(Cl)cc(-c3cccc(CN4CCCN(C)CC4)c3)c2)c1 |
| 84 to 85 | COC(=O)c1ccc2sc(C)c(Br)c2c1 |
| 196 to 198 | Fc1cc2c(Nc3ccc(OCc4cccc(Cl)c4)c(Cl)c3)ncnc2cn1 |
| 154 | CC(C)(CCc1ccccc1)NCC(O)c1ccc(O)c(C(N)=O)c1 (stereo not given) |
| 83 to 86 | COC(=O)CCCCOc1cc2c(c(Cl)c1Cl)C(=O)C(C)(C1CCCC1)C2 (stereo not given) |
| 115 to 118 | O=C1c2cccc3cccc(c23)C(=O)N1CCCO |
| 136 to 138 | CN(C)C(=O)C1=C(C(=O)Nc2cc(OC3CCCC3)c(Cl)cc2F)CCCC1 |
| 204 to 206 | Cc1sc(NS(=O)(=O)c2ccc(-c3ccccc3)cc2)nc1CC(=O)N1CCOCC1 |
| 119 to 120 | c1ccc2c(c1)CCSO2 |
| 220 to 221 | N#CN=C(Nc1cnc(Cl)c(N)c1)NC1(c2ccccc2)CCC1 |
| 124 to 128 | CCOC(=O)C(C)Cc1ccc(-n2c(C)nn(-c3ccc(C#N)cc3)c2=O)cc1 (stereo not given) |
| 138 to 140 | CCCc1c(OCCCOc2ccc3c(c2CCC)OC(C(=O)O)(C2CC2C(=O)O)CC3)ccc(C(C)=O)c1O (stereo not given) |
| 158 | Oc1ccc2cc(Oc3c(Cl)cc(C(F)(F)F)cc3Cl)ccc2c1 |
| 80.5 to 81.5 | CC(C)Oc1ccc(NC(=S)NCc2ccsc2)cc1 |
| 72 to 73 | C(=C\c1nc(COc2ccccc2CCCn2cncn2)co1)/c1ccccc1 |
| 41 to 44 | COC(=O)NCc1cccc(Br)c1 |
| 117 | Cc1cc(-n2ccnc2)c2cccc(OCc3c(Cl)ccc(S(=O)(=O)N4CCC[C@H]4C(=O)NCCc4cccnc4)c3Cl)c2n1 |
| 293 to 295 | CNC(=O)c1ccccc1Nc1nc(Nc2ccc3c(c2)OCCNC3=O)ncc1Cl |

| melting point [°C] | SMILES |
| --- | --- |
| 127 to 128 | CSCCn1cc(Cl)nc(N2CCc3cc(Cl)cc(Cl)c32)c1=O |
| 203 | CC1(C)CC(O)CC(C)(C)N1CC#CCN1C(C)(C)CC(O)CC1(C)C |
| 287 | CC1(C)OCC(COc2ccc(-c3ccc4cc(C(=O)O)ccc4c3)cc2C23CC4CC(CC(C4)C2)C3)O1 (stereo not given) |
| 81 | CCCC(=O)c1cccc(NC(=O)C=C(C)OC)c1 |
| 121 to 122 | CCOC(OCC)c1cc(NC(c2ccccc2)(c2ccccc2)c2ccccc2)c(F)c(C2CCC2)n1 |
| 216 | COc1cccc2c1c(=O)oc(=O)n2C |
| 172 to 173 | COC(=O)c1c(C(=O)OC)c2sc3ccccc3n2c1-c1ccc(Cl)cc1 |
| 70 to 73 | Fc1ccc(F)c(C(Sc2ccc(Cl)cc2)c2ccc(C3OCCO3)cn2)c1 (stereo not given) |
| 95 to 96 | COC(=O)NCCOc1cc(-c2ccccc2)on1 |
| 105 | COc1ccc2cc([C@H](C)C(=O)OCC(C)(CO)CO)ccc2c1 |
| 126 to 128 | COc1cc2c(c3c1OC(C)(C)C3)C(c1cccc(-c3ccco3)c1)=NC(C)(C)C2 |
| 136 to 138 | COc1ncc(-c2ccncc2)cc1Br |
| 45 to 48 | COc1ccc(CCC#N)cc1OC |
| 79 to 80 | Clc1ccc(-c2nc(-n3cccn3)oc2CCC2=NCCO2)cc1 |
| 75 to 79 | O=C(O)C(=O)NCCCCCC1CCSS1 (stereo not given) |
| 88 to 90 | CC(C)Oc1cc(-n2c(Cl)nc(C(F)(F)F)cc2=O)c(F)cc1Cl |
| 64 to 66 | COCc1nc(C)c2c(n1)N(Cc1ccc(Br)cc1)C(=O)CC2 |
| 75 to 77 | Cc1nc(OCCCc2cc(OC(C)C)nn2Cc2ccc(Cl)cc2Cl)c(CC(=O)O)s1 |
| 64 | COC(=O)CCC#Cc1cc(Cl)ccc1NS(=O)(=O)c1cccc(Cl)c1Cl |
| 233 to 235 | O=C(Nc1ccc(C(=O)N2C[C@@H]3CCCN3C(=O)c3ccccc32)cc1)c1ccccc1-c1ccccc1 |
| 66 to 67 | CCCCCCCCSc1nc2cc(Cl)ccc2[nH]1 |
| 118 to 119 | CCc1cc(O)nc(C)n1 |
| 224 to 225 | O=C(CC12CC3CC(CC(C3)C1)C2)Nc1ccc(O)cc1Cl |

| melting point [°C] | SMILES |
| --- | --- |
| 250 to 251 | CCc1nc2c(N)nc3cc(-c4ccc(F)nc4)cnc3c2n1CC(C)(C)O |
| 175 to 176 | O=c1ccc2cnc(Nc3ccccc3)nc2n1CCCOc1ccccc1 |
| 137 to 138 | NC(=O)N(O)Cc1ccc(OCCc2csc(-c3ccccc3)n2)cc1 |
| 127 to 132 | CC(c1oc2ccccc2c(=O)c1-c1cccc(F)c1)n1nc(-c2cccc(C(=O)NC3CC3)c2)c2c(N)ncnc21 (stereo not given) |
| 218 to 220 | COC(=O)c1[nH]c(-c2ccccc2)c(N=Cc2ccccc2)c1C(=O)OC |
| 254 | Nc1ccc(-c2noc(-c3cnn4c(C(F)F)cc(-c5ccc(Cl)cc5)nc34)n2)cn1 |
| 88 to 91 | BrCC=Cc1ccc(-c2cnc(CSCCOc3ccccc3)o2)cc1 |
| 241 to 243 | CCc1ccc(-c2ccc3c(c2)C=C(C(=O)O)CCO3)cc1 |
| 87 to 88 | CNC(=O)n1nc(Oc2c(F)cc(C(F)(F)F)cc2Cl)cc1C |
| 86 to 90 | N#CCc1cccc(C(=O)c2ccc(Cl)cc2)c1 |
| 168 to 169 | COc1ccc(N2CCN(c3ccc(F)cc3)CC2)c(-c2ccc(N(C)C)cc2)n1 |
| > 260 | CC(C)(C)OC(=O)c1ccc(C#Cc2cnc3nc(N)nc(O)c3c2)cc1 |
| 61 to 62 | COc1cc(OC)cc(C2CCCCC2=O)c1 (stereo not given) |
| 141 | COc1ccc(C2CC(c3ccc(OC)c(OC)c3)=NN2c2ccc(C(=O)O)cc2)cc1 (stereo not given) |
| 174 to 177 | O=C(O)c1cc(Br)cnc1Cl |
| 229 to 231 | CCOC(=O)c1cn(CC)c2oc(CN3CCOCC3)cc2c1=O |
| 108 to 109 | O=C(O)CCCCCCc1cncc2ccccc12 |
| 61 to 65 | CCCCOC(=O)N[C@@H](CC(N)=O)C(=O)N[C@@H](Cc1ccccc1)[C@H](O)C(=O)N1CCC[C@H]1C(=O)NC(C)(C)C |
| 263 to 264 | CCNC(=O)Nc1cc(-c2c(-c3ccc(F)c(C)c3)nc3ccc(NC)nn23)ccn1 |
| 127 to 129 | COc1cc(/C=C/S(=O)(=O)CS(=O)(=O)/C=C/c2cc(OC)c(OC)c(OC)c2)cc(OC)c1OC |
| 294 to 296 | Cc1[nH]c(=O)c(C#N)cc1-c1csc(N)n1 |
| 158 | CC(C)CN=C1C(c2ccccc2)=C(c2ccccc2)C(c2ccccc2)=C1c1ccccc1 |
| > 250 | CNC(=O)Cn1c(-c2ccc(C)cc2)nc2ccc(Cl)nc21 |

| melting point [°C] | SMILES |
| --- | --- |
| 177 to 178 | Cc1ccc(Sc2cccc(-c3nc(=O)c4ccccc4s3)n2)cc1 |
| 146 | COC(=O)c1ccccc1S(=O)(=O)NC(=O)n1nc(C)n(C2CCCC2)c1=O |
| 128 | CC(C)=CCN1Cc2cccc3[nH]c(=S)n(c23)CC1C (stereo not given) |
| 49 | CCCCc1c2ccccc2cc2ccccc12 |
| 132 to 134 | COC(=O)CC[C@H]1CC[C@@H](NC(=O)N(NC(C)=O)c2ccc(C#N)cc2)CC1 |
| 116 to 117 | COc1ccc([C@H](O)[C@@H](Cc2ccc(C(F)(F)F)cc2)NC(=O)CCc2ccccc2)cc1 (racemic) |
| 130 to 132 | CCC(CC)c1cccc2[nH]c(=O)n(C)c12 |
| 184 to 187 | C=CCOc1ccc2nc(S(N)(=O)=O)sc2c1 |
| 133 to 134 | COC(=O)C(C#N)=CC1=C(N2CCCC2)CCCC1 |
| 130 to 131 | COc1ccccc1N1CCN(CCCCc2ccc(C3CCC(=O)N3)cc2)CC1 (stereo not given) |
| 100 to 101 | Cc1sc(-c2ccccc2)nc1COc1ccc(CCl)cc1 |
| 218 to 219 | CS(=O)(=O)c1ccc(Oc2cc(OCc3ccccc3)c3[nH]c(C4=NCC(CC(=O)O)S4)cc3c2)cc1 (stereo not given) |
| 188 to 189 | CCc1cc2c(c3c1[nH]c1ccc(O)cc13)C(=O)N(CCN(CC)CC)C2=O |
| 160 to 162 | COc1ncnc(-c2cc(NS(C)(=O)=O)c(Cl)cc2Cl)c1C#N |
| 91 to 92 | CC(C)S(=O)(=O)c1ccc(Oc2ccc(Cl)c(Cl)c2)nc1 |
| 104 to 105 | COC(=O)NC(C)Cc1cccc([N+](=O)[O-])c1 (stereo not given) |
| 262 | N#Cc1ccc(C(=O)N[C@H]2CC[C@H](CCN3CCN(c4nccc5c4OCC5)CC3)CC2)cc1 |
| 260 | CC(C)(C)c1cc(C2(C)NC(=O)NC2=O)cc(C(C)(C)C)c1O (stereo not given) |
| 266 | CC(=O)Nc1cccc2c1Cc1ccccc1C2=O |
| 160 to 162 | NCc1cc(Cl)ccc1O |
| 205 | COc1ccc(CN(C)CCc2ccc(NC(=O)c3cccc4c(=O)c5cc(F)ccc5sc34)cc2)cc1OC |
| 120 to 122 | COc1ccc2c(c1)C(C#N)c1ccccc1CO2 (stereo not given) |
| 35 to 37 | O=Cc1c(F)cccc1Br |

| SMILES | melting point [°C] |
| --- | --- |
| CCc1cc2c(s1)-n1c(CCNC(=O)c3cc4ccccc4[nH]3)nnc1CN=C2c1ccccc1Cl | 174 to 178 |
| CC1CC(=O)NN=C1c1ccc(-n2cccc2)nc1 (stereo not given) | 192 to 193 |
| COP(=S)(OC)Oc1nc(OCc2ccccc2)sc1C#N | 47 |
| CCCCC1(N(C)C)CCC(c2[nH]c3ccccc3c2C)(c2[nH]c3ccccc3c2CCNS(=O)(=O)C2CCCC2)CC1 (stereo not given) | 111 to 115 |
| NC1(CO)CCCNC1=O (stereo not given) | 145 |
| COC(=O)Cc1cc2c(s1)-n1c(C)nnc1C(C)N=C2c1ccccc1Cl (stereo not given) | 105 to 106 |
| Cc1nnc2n1-c1ccc([N+](=O)[O-])cc1C(c1ccccc1F)=NC2(C)C | 195 |
| CNC(=O)OC1CCN(C(=O)Oc2ccc(Oc3ccccc3)cc2)CC1 | 117 to 119 |
